Test results as given in patent publication US10420840B2, “Anticancer therapeutic agents” (RLL, LLC, priority 2015, dated 2019).

Assays:
PBMC = assay: Cell viability, CellTiter Glo Assay, PBMC; format: cell-based; settings: peripheral blood monocytes (proliferating normal cells), read-out: Effect of AOH39 on Cell Viability IC50
Description: (§1) The IC50's listed in Table 1 and in FIGS. 8 and 9 were determined by monitoring cell proliferation in the absence or presence of increasing concentrations of AOH39 using the Cell-Titer Glo Assay, (Promega Inc., Madison, Wis.) which monitors the energy status of the entire culture and the viability of the cell population. (https://www.promega.com/products/cell-health-and-metabolismicell-viability-assaysicelltiter_glo-luminescent-cell-viability-assay/). As the population doubles so does the quantum yield from the assay. HCC1937 is a BRCA1 defective Breast Cancer cell line; MCF7 is an ER+ breast cancer cell line; MDA-MB231 and MDA-MB468 are ER-aggressive breast cancer cell lines. SK-N-AS, SK-N-BE2c, SK-N-DZ lines are neuroblastoma cell lines and LAN5 cells are a cell line derived from a neuroblastoma bone metastasis; MCF10A is a non-malignant but immortalized breast cell line. PBMC—peripheral blood monocytes (proliferating normal cells), and MCF10A is an immortalized but non-malignant breast epithelial cell line. Referring to FIGS. 8 and 9, the X-axis is the Log of AOH39 concentration in uM, where 0 corresponds to 1 uM and 1 corresponds to 10 uM. The Y-Axis indicates cell proliferation as a percentage of identical cell cultures grown in PBS/DMSO without added AOH39.

MCF10A = assay: Cell viability, CellTiter Glo Assay, MCF10A; format: cell-based; settings: Homo sapiens, MCF-10A, non-malignant but immortalized breast cell line, read-out: Effect of AOH39 on Cell Viability IC50
Description: as §1

MCF7 = assay: Cell viability, CellTiter Glo Assay, MCF7; format: cell-based; settings: Homo sapiens; MCF7, ER+ breast cancer cell line; read-out: Effect of AOH39 on Cell Viability IC50
Description: as §1

HCC1937 = assay: Cell viability, CellTiter Glo Assay, HCC1937; format: cell-based; settings: Homo sapiens; HCC1937, BRCA1 defective breast cancer cell line; read-out: Effect of AOH39 on Cell Viability IC50
Description: as §1

MDA-MB468 = assay: Cell viability, CellTiter Glo Assay, MDA-MB468; format: cell-based; settings: Homo sapiens, MDA-MB-468; MDA-MB468, ER- breast cancer cell line; read-out: Effect of AOH39 on Cell Viability IC50
Description: as §1

MDA-MB231 = assay: Cell viability, CellTiter Glo Assay, MDA-MB231; format: cell-based; settings: Homo sapiens, MDA-MB-231; MDA-MB231, ER- breast cancer cell line; read-out: Effect of AOH39 on Cell Viability IC50
Description: as §1

SK-N-AS = assay: Cell viability, CellTiter Glo Assay, SK-N-AS; format: cell-based; settings: Homo sapiens, neuroblastoma cell line, read-out: Effect of AOH39 on Cell Viability IC50
Description: as §1

SK-N-BE2c = assay: Cell viability, CellTiter Glo Assay, SK-N-BE2c; format: cell-based; settings: SK-N-BE(2)-C, neuroblastoma cell line, read-out: Effect of AOH39 on Cell Viability IC50
Description: as §1

SK-N-DZ = assay: Cell viability, CellTiter Glo Assay, SK-N-DZ; format: cell-based; settings: Homo sapiens, neuroblastoma cell line, read-out: Effect of AOH39 on Cell Viability IC50
Description: as §1

LAN5 = assay: Cell viability, CellTiter Glo Assay, LAN5; format: cell-based; settings: LA-N-5; LAN5, neuroblastoma bone metastasis cell line; read-out: Effect of AOH39 on Cell Viability IC50
Description: as §1

[1] = tested on: MCF7 Cell SV40 origin-dependent In Vitro DNA replication; assay: T-antigen and SV40 origin dependent in vitro DNA replication reaction; format: biochemical; settings: for Inhibition of in vitro DNA replication: relative to reaction containing Tris-HCl/DMSO
Description: In vitro DNA replication activity was determined using the standard T-antigen and SV40 origin dependent in vitro DNA replication reaction (L. Malkas et al., Biochemistry 29: 6362-6374 (1990) and percent inhibition was determined relative to a reaction containing Tris-HCl/DMSO in place of AOH39.) The reaction was started with the addition of T-antigen to the reaction mixture. Results are shown in FIG. 3, with AOH39 inhibiting replication by roughly 50% at concentrations of 5 μM and by more than 75% at 10 μM.
(§2) There is a precise correlation between the ability of AOH39 to inhibit the SV40 origin dependent in vitro DNA replication process and MCF7 cell viability, FIG. 4. Cell viability was determined colorimetrically using the MTT assay following a 72 hour incubation with 10 μM of AOH39. In vitro DNA replication activity was determined using the standard T-antigen and SV40 origin dependent in vitro DNA replication reaction (L. Malkas et al., Biochemistry, 29, 6362-6374 (1990)), and percent inhibition was determined relative to a reaction containing Tris-HCl/DMSO in place of AOH39 for the activity assay, and PBS/DMSO for the viability assay.

MCF7 cells = assay: MCF7 cell viability, MTT assay; format: cell-based; settings: 72 hour incubation with 10 μM
Description: as §2

`O=C(CNC(=O)c1cccc2ccccc12)Nc1ccccc1Cc1ccccc1` [AOH39] was tested, and the IC50 (PBMC) was 13.2 µM, the IC50 (MCF10A) was 6.2 µM and the IC50 (MCF7) was 3.1 µM. For the same compound, the IC50 (HCC1937) was 2.2 µM, the IC50 (MDA-MB468) was 3.3 µM and the IC50 (MDA-MB231) was 1 µM. For the same compound, the IC50 (SK-N-AS) was 2.2 µM, the IC50 (SK-N-BE2c) was 2.9 µM and the IC50 (SK-N-DZ) was 1.7 µM. For the same compound, the IC50 (LAN5) was 1.2 µM, the “Inhibition of in vitro DNA replication” value ([1]; 5 μM) was “roughly 50%” and the “Inhibition of in vitro DNA replication” value ([1]; 10 μM) was “more than 75%”. The “Inhibition of DNA replication (in words)” value ([1]; relative to control replication reaction containing PBS/DMSO in place of compound) was “inhibited DNA replication significantly” and the “MCF7 cell viability (in words)” value (MCF7 cells) was “significant decrease in MCF7 cell viability”.
